# Experiments:
# [1] = test system: GAL-PPARα; test: PPARα activation assay (GAL-PPARα / GAL4-Luc reporter) in HEK293 cells expressing endogenous AdipoR1; assay type: cell-based, human; conditions: 100 pM GW-7647 alone, 6 hours, HEK293
# Experimental: A. ULMA enhances PPARα ligand activity; HEK293 cells were seeded on to 24 well plates and after 24 h, transfected with 100 ng of GAL-PPARα and 100 ng GAL4-Luc along with 100 ng eGFPC1 (Clontech) plasmids using lipofectamine LTX (Invitrogen) according to manufacturer's instructions. 24 h after transfection, cells were treated with or without 100 pM GW-7647 alone or in combination with 100 nM ULMA or 1 μg/ml globular adiponectin (gAd) for 6 h. Following which, the cells were lysed and GFP fluorescence and firefly luciferase activities were measured. Luciferase activity was normalized with GFP fluorescence and plotted as fold activity over vehicle (0.1% DMSO) treated control. Data shown in mean±SEM of three independent experiments performed in duplicates. *p<0.05 as determined by two tailed unpaired student's t-test.
# The potential of ULMA to activate adiponectin receptor signaling was evaluated using a PPARα activation assay. […] 24 hours following plating, these cells were transfected with 100 ng of GAL-PPARα (PPARα cDNA fused with GAL4 DNA binding domain) and 100 ng GAL4 upstream activation sequence driven luciferase (GAL4-Luc) reporter gene that is capable of binding to any protein fused to GAL4-DNA binding domain (in this case GAL-PPARα) and 100 ng Green fluorescence expressing plasmid (GFP) that was used as an internal control, using lipofectamine LTX transfection reagent (Invitrogen) according to manufacturers' instructions. […] The cells were then lysed and luciferase activity was measured in a Promega GloMax luminometer using steady Glo luciferase assay kit (Promega) according to manufacturers' instructions; and GFP fluorescence was measured in a fluorimeter (Polarstar Galaxy, BMG Labtech). […]
# [2] = test system: wistar rats; test: Dexamethasone-mediated reduction of food intake in rats; assay type: in vivo, rat; conditions: Dex alone 200 μg/kg IP
# Experimental: Six to eight week old wistar rats (n=6 per group) were housed separately and treated as indicated in the example. Daily food intake was measured and plotted. […] Data represents mean+/−SEM.
# (§1) Blood was collected from cardiac punctures.
# Food intake was measured every alternate day by giving measured food to each cage in evening (5.00 PM) and collection of residual food in next morning (9.00 AM) and measuring it. The residual food was subtracted from the food given and plotted.
# [3] = test system: wistar rats; test: Dexamethasone induced loss of body weight and death in rats; conditions: Dex alone (200 μg/kg IP), 2 weeks
# Experimental: All animal experiments were conducted in accordance with current legislation on animal experiments [Institutional Animal Ethical Committee (IAEC)] at C.D.R.I. In all animal experiments, rats were individually housed at 21° C., in 12-h light:12-h dark cycles. All animals had access to normal chow diet and water ad libitum.
# (§2) Food intake was measured daily and the rats were weighed each week. The rats were fasted overnight (O/N) on day 14th and on day 15th oral glucose tolerance test was performed. Following oral glucose tolerance test (OGTT), rats were kept with food and water ad libitum for one day. On day 16th, rats were fasted again O/N and then euthanized. At autopsy, from 5 animals/group, tissues were collected and snap frozen in liquid nitrogen. Blood was collected from cardiac punctures. Plasma was separated from whole blood by centrifugation at 3000 rpm for 20 min immediately after collection of blood and stored at −80° C. until further analysis. […] (quadriceps) skeletal muscles were processed for RNA and protein extraction, followed by quantitative real-time PCR (QRT-PCR) analysis. Two animals from each group were used for photography post autopsy.
# [4] = test system: wistar rats; test: Dexamethasone-mediated imbalance in serum Na, K level in rats; assay type: in vivo, rat; conditions: Dex + Vehicle, 14 days
# Experimental: Food intake was measured daily and the rats were weighed each week. The rats were fasted overnight (O/N) on day 14th and on day 15th oral glucose tolerance test was performed. Following oral glucose tolerance test (OGTT), rats were kept with food and water ad libitum for one day. On day 16th, rats were fasted again O/N and then euthanized. At autopsy, from 5 animals/group, tissues were collected and snap frozen in liquid nitrogen. Blood was collected from cardiac punctures. Plasma was separated from whole blood by centrifugation at 3000 rpm for 20 min immediately after collection of blood and stored at −80° C. until further analysis. Forelimb (quadriceps) skeletal muscles were processed for RNA and protein extraction, followed by quantitative real-time PCR (QRT-PCR) analysis. Two animals from each group were used for photography post autopsy.
# [5] = test system: wistar rats; test: Dexamethasone-mediated reduction in serum osteocalcin in rats (ELISA); assay type: in vivo, rat; conditions: Dex alone, 14 days
# Experimental: as §2
# [6] = test system: wistar rats; test: Dexamethasone-induced skeletal muscle atrophy in rats (limb appearance, QRT-PCR of PGC-1α and atrogenes); assay type: in vivo, rat; conditions: Dex alone
# Experimental: Following 15 d indicated treatment of rats, the skeletal muscle (pulled hind limb) were collected and RNA was extracted from them and QRT-PCR was performed in a Roche lightcycler 480 machine. Data represents mean+/−SEM from six animals done in triplicates. “a” statistical analysis between Vehicle and Dexamethasone-treated groups, “b”, statistical analysis between dex-treated and dex+ ULMA groups. P<0.05, as determined by student's t-test, n=6.
# as §1
# RNA was isolated from skeletal muscles using Trizol (according to manufacturers' protocol) and reverse transcribed as described above and either PGC-1α expression or muscle atrophy related genes (atrogenes) expression were examined.
Structure (SMILES),increase of luciferase activity over vehicle-treated controls [1] [folds],food intake [2],Survival/group (%) [3] [%],K [4] [mM],Osteocalcin [5] [ng/mL],appearance of denuded forelimb and hindlimb [6],"mRNA levels of atrogenes (Atrogin-1/MAFbx, MuRF1, Cathepsin L, Glul) in skeletal muscle [6]"
"CC(C)(Sc1ccc(CCN(CCCCC2CCCCC2)C(=O)NC2CCCCC2)cc1)C(=O)O [GW-7647, reference compound]",2,–,–,–,–,–,–
"C[C@@H]1C[C@H]2[C@@H]3CCC4=CC(=O)C=C[C@]4(C)[C@@]3(F)[C@@H](O)C[C@]2(C)[C@@]1(O)C(=O)CO [Dex, Dexamethasone, reference compound]",–,robust loss in food-intake,46.7,3.47 ± 0.13,263.5 ± 6.4,severe abnormality in the limbs,robustly induced
